Measurements published in ChEMBL document CHEMBL4229547, “Design, synthesis and biological mechanisms research on 1,2,3-triazole derivatives of Jiyuan Oridonin A” (Bioorg Med Chem, 2018).
pIC50: −log10 of the molar value. Activity calls are given as the source filed them. The calls are words filed in the database; no cut-off is given here.

Assays:
MCF7 = experiment: Antiproliferative activity against human MCF7 cells after 48 hrs by MTT assay; type: functional, cell-based; settings: MCF7, 48 h
MGC-803 [1] = experiment: Induction of reactive oxygen species formation in human MGC803 cells at 3 ug/ml after 5 hrs by DCFH-DA staining-based flow cytometry (reference value: 7.1%); type: functional
MGC-803 [2] = experiment: Cell cycle arrest in human MGC803 cells assessed as accumulation at G2/M phase after 48 hrs by propidium iodide staining-based flow cytometric method; type: functional
MGC-803 [3] = experiment: Induction of apoptosis in human MGC803 cells assessed as necrotic cells at 1.5 ug/ml in presence of N-acetyl cysteine by annexin V-FITC/propidium iodide staining-based flow cytometric method (reference value: 1%); type: functional
MGC-803 [4] = experiment: Antiproliferative activity against human MGC803 cells at 8 to 16 ug/ml after 48 hrs in presence of N-acetyl cysteine by MTT assay; type: functional, cell-based
MGC-803 [5] = experiment: Induction of apoptosis in human MGC803 cells assessed as decrease in ratio of Bcl-2/Bax at 1.5 to 6 ug/ml after 48 hrs by Western blot method; type: functional, cell-based
SMMC-7721 = experiment: Antiproliferative activity against human SMMC7721 cells after 48 hrs by MTT assay; type: functional, cell-based; settings: SMMC-7721, 48 h
MGC-803 [6] = experiment: Cell cycle arrest in human MGC803 cells assessed as accumulation at S phase at 1.5 ug/ml after 48 hrs in presence of N-acetyl cysteine by propidium iodide staining-based flow cytometric method (reference value: 32.5 +/- 2.25%); type: functional
MGC-803 [7] = experiment: Induction of apoptosis in human MGC803 cells assessed as upregulation of cleaved caspase-9 levels after 48 hrs by Western blot method; type: functional, cell-based
MGC-803 [8] = experiment: Induction of apoptosis in human MGC803 cells assessed as late apoptotic cells at 3 ug/ml in presence of N-acetyl cysteine by annexin V-FITC/propidium iodide staining-based flow cytometric method (reference value: 0.1%); type: functional
MGC-803 [9] = experiment: Induction of reactive oxygen species formation in human MGC803 cells at 3 ug/ml after 3 hrs by DCFH-DA staining-based flow cytometry (reference value: 7.1%); type: functional
MGC-803 [10] = experiment: Induction of apoptosis in human MGC803 cells assessed as late apoptotic cells at 1.5 ug/ml by annexin V-FITC/propidium iodide staining-based flow cytometric method (reference value: 0.1%); type: functional
MGC-803 [11] = experiment: Disruption of mitochondrial membrane potential in human MGC803 cells at 1.5 to 3 ug/ml after 24 hrs by JC1 staining-based fluorescence microscopic method; type: functional, cell-based
MGC-803 [12] = experiment: Induction of apoptosis in human MGC803 cells assessed as downregulation of survivin levels at 1.5 to 6 ug/ml after 48 hrs by Western blot method; type: functional, cell-based
MGC-803 [13] = experiment: Cell cycle arrest in human MGC803 cells assessed as accumulation at G2/M phase at 3 ug/ml after 48 hrs by propidium iodide staining-based flow cytometric method (reference value: 17.2 +/- 1.35%); type: functional
MGC-803 [14] = experiment: Cell cycle arrest in human MGC803 cells assessed as accumulation at G2/M phase at 1.5 ug/ml after 48 hrs in presence of N-acetyl cysteine by propidium iodide staining-based flow cytometric method (reference value: 17.2 +/- 1.35%); type: functional
MGC-803 [15] = experiment: Induction of apoptosis in human MGC803 cells assessed as upregulation of p53 levels at 1.5 to 6 ug/ml after 48 hrs by Western blot method; type: functional, cell-based
EC9706 = experiment: Antiproliferative activity against human EC9706 cells after 48 hrs by MTT assay; type: functional, cell-based; settings: EC9706, 48 h
MGC-803 [16] = experiment: Induction of apoptosis in human MGC803 cells assessed as viable cells at 1.5 ug/ml by annexin V-FITC/propidium iodide staining-based flow cytometric method (reference value: 97.6%); type: functional; settings: read-out: Activity
MGC-803 [17] = experiment: Cell cycle arrest in human MGC803 cells assessed as accumulation at S phase at 3 ug/ml after 48 hrs in presence of N-acetyl cysteine by propidium iodide staining-based flow cytometric method (reference value: 32.5 +/- 2.25%); type: functional
MGC-803 [18] = experiment: Cell cycle arrest in human MGC803 cells assessed as accumulation at G2/M phase at 3 ug/ml after 48 hrs in presence of N-acetyl cysteine by propidium iodide staining-based flow cytometric method (reference value: 17.2 +/- 1.35%); type: functional
MGC-803 [19] = experiment: Induction of apoptosis in human MGC803 cells assessed as necrotic cells at 3 ug/ml in presence of N-acetyl cysteine by annexin V-FITC/propidium iodide staining-based flow cytometric method (reference value: 1%); type: functional
HGC-27 = experiment: Antiproliferative activity against human HGC27 cells after 48 hrs by MTT assay; type: functional, cell-based; settings: HGC-27, 48 h
MGC-803 [20] = experiment: Induction of apoptosis in human MGC803 cells assessed as upregulation of p21 levels at 1.5 to 6 ug/ml after 48 hrs by Western blot method; type: functional, cell-based
MGC-803 [21] = experiment: Cell cycle arrest in human MGC803 cells assessed as accumulation at G0/G1 phase at 3 ug/ml after 48 hrs in presence of N-acetyl cysteine by propidium iodide staining-based flow cytometric method (reference value: 52.5 +/- 3.71%); type: functional
MGC-803 [22] = experiment: Induction of apoptosis in human MGC803 cells assessed as increase in cell debris after 24 hrs by inverted microscopic method; type: functional, cell-based
ECa-109 cell line = experiment: Antiproliferative activity against human ECA109 cells after 48 hrs by MTT assay; type: functional, cell-based; settings: ECa-109, 48 h
MGC-803 [23] = experiment: Induction of apoptosis in human MGC803 cells assessed as early apoptotic cells at 3 ug/ml in presence of N-acetyl cysteine by annexin V-FITC/propidium iodide staining-based flow cytometric method (reference value: 1.3%); type: functional
MGC-803 [24] = experiment: Induction of apoptosis in human MGC803 cells assessed as upregulation of cytochrome c levels in cytoplasm at 1.5 to 6 ug/ml after 48 hrs by Western blot method; type: functional, cell-based
MGC-803 [25] = experiment: Cell cycle arrest in human MGC803 cells assessed as accumulation at G2/M phase at 1.5 ug/ml after 48 hrs by propidium iodide staining-based flow cytometric method (reference value: 17.2 +/- 1.35%); type: functional
PC-3 = experiment: Antiproliferative activity against human PC3 cells after 48 hrs by MTT assay; type: functional, cell-based; settings: PC-3, 48 h
MGC-803 [26] = experiment: Disruption of mitochondrial membrane potential in human MGC803 cells at 1.5 to 3 ug/ml after 24 hrs in presence of N-acetyl cysteine by JC1 staining-based fluorescence microscopic method; type: functional, cell-based
MGC-803 [27] = experiment: Induction of apoptosis in human MGC803 cells assessed as early apoptotic cells at 3 ug/ml by annexin V-FITC/propidium iodide staining-based flow cytometric method (reference value: 1.3%); type: functional
MGC-803 [28] = experiment: Induction of apoptosis in human MGC803 cells assessed as late apoptotic cells at 3 ug/ml by annexin V-FITC/propidium iodide staining-based flow cytometric method (reference value: 0.1%); type: functional
MGC-803 [29] = experiment: Induction of apoptosis in human MGC803 cells assessed as early apoptotic cells at 1.5 ug/ml by annexin V-FITC/propidium iodide staining-based flow cytometric method (reference value: 1.3%); type: functional
GES1 = experiment: Antiproliferative activity against human GES-1 cells after 48 hrs by MTT assay; type: cell-based; settings: GES1, 48 h

In the case of `C=C1C(=O)[C@]23[C@H](O)[C@H]1C[C@H](O)[C@H]2[C@]12CCCC(C)(C)[C@H]1C[C@H]3O[C@@H]2OCCc1cn(Cc2ccc(Cl)cc2)nn1`, the pIC50 (MCF7) was 5.32, the Activity (MGC-803 [1]) was 24.8% and the Activity (MGC-803 [2]) was “Dose-dependent effect”. For the same compound, the Activity (MGC-803 [3]) was 0.6%, the Activity (MGC-803 [4]) was “inactive” and the Activity (MGC-803 [5]) was “Active”. The pIC50 (SMMC-7721) was 5.35, the Activity (MGC-803 [6]) was 29.1% and the Activity (MGC-803 [7]) was “Dose-dependent effect”. For the same compound, the Activity (MGC-803 [8]) was 0%, the Activity (MGC-803 [9]) was 13.6% and the Activity (MGC-803 [10]) was 0.3%. The Activity (MGC-803 [11]) was “Active”, the Activity (MGC-803 [12]) was “Active” and the Activity (MGC-803 [13]) was 40.3%. For the same compound, the Activity (MGC-803 [14]) was 16.1%, the Activity (MGC-803 [15]) was “Active” and the pIC50 (EC9706) was 5.30. The viability at 1.5 µg/mL (MGC-803 [16]) was 91%, the Activity (MGC-803 [17]) was 33.2% and the Activity (MGC-803 [18]) was 14.8%. For the same compound, the Activity (MGC-803 [19]) was 0.6%, the pIC50 (HGC-27) was 5.53 and the Activity (MGC-803 [20]) was “Active”. For the same compound, the Activity (MGC-803 [21]) was 50.4%, the Activity (MGC-803 [22]) was “Dose-dependent effect” and the pIC50 (ECa-109 cell line) was 5.57. For the same compound, the Activity (MGC-803 [23]) was 4.6%, the Activity (MGC-803 [24]) was “Active” and the Activity (MGC-803 [25]) was 26.7%. For the same compound, the pIC50 (PC-3) was 5.40, the Activity (MGC-803 [26]) was “inactive” and the Activity (MGC-803 [27]) was 60.3%. It also gave an Activity (MGC-803 [28]) of 1.1%, an Activity (MGC-803 [29]) of 7.8% and a pIC50 (GES1) of 4.54.
